Reference: patent publication US7632830B2, “Lactam compounds and pharmaceutical use thereof” (Ajinomoto Co., Inc., priority 2000, dated 2009)
Values after ≈ are worked out from the molar mass of the structure shown.

The compounds below were run on adipose cells of rats (assay: Evaluation of the sugar-transporting activity (2-[14C(U)]-deoxy-D-glucose incorporation)). Details: 100 μg/ml of each compound; evaluated on the basis of the reinforcing effect of insulin (100 nM); rat adipose cells.
Assay type: cell-based
Procedure: After the decapitation and venesection of 6 male Wistar rats (body weight: 150 to 200 g), an incision was made in the abdomen of each rat to extract 6 g in total of epididymal adipose tissues. The tissues were finely cut into 2 mm×2 mm pieces in 6 ml of KRH (Krebs-Ringer Hepes, composition: 130 mM of sodium chloride, 4.7 mM of potassium chloride, 1.2 mM of potassium dihydrogenphosphate, 1.2 mM of magnesium sulfate, 1 mM of calcium chloride and 25 mM of Hepes, pH=7.6) containing 5% of BSA (bovine serum albumin). 24 mg of collagenase (type I) was added thereto and the digestion treatment was conducted for about 40 minutes to obtain about 6 ml of isolated adipose cells. The collagenase was removed by the buffer exchange. 2% BSA/KRH solution was added to the residue for the re-suspension to obtain 45 ml of an adipose cell suspension.
The sugar-transporting activity of the compounds of the present invention was evaluated with reference to a method described in a literature [Annual Review of Biochemistry, Vol. 55, p. 1059 (1986)]. In the test, 200 μl of the adipose cell suspension was poured in each polystyrene test tube, 100 μl of the solution of the test substance (by dilution of 10 mg/ml substance dimethyl sulfoxide solution with KRH) was added thereto, and the obtained mixture was shaken and then cultured at 37° C. for 30 minutes.
The sugar-transporting activity was evaluated by measuring the quantity of 2-[^14C(U)]-deoxy-D-glucose incorporated per a unit time. Namely, 2-[^14C(U)]-deoxy-D-glucose was added to the adipose cell suspension after the pre-culture (the final concentration: 0.5 μCi/sample). 5 minutes after, cytochalasin B (final concentration: 10 μM) was added to the mixture to terminate the sugar transportation. After forming a dinonyl phthalate layer, the obtained mixture was centrifuged to separate the adipose cells from the buffer. The quantity of 2-[^14C(U)]-deoxy-D-glucose contained in the adipose cell layer was determined with a liquid scintillation counter to determine the quantity of the incorporated sugar. In this evaluation system, when insulin (100 nM) having the effect of increasing the sugar transportation was used, the effect was about 7 times as high as that obtained in the insulin-free control group.
The results of the evaluation of the sugar-transporting activity obtained by using 100 μg/ml of each compound of the present invention are shown in Table 6. The sugar transporting activity in Table 6 was evaluated on the basis of the reinforcing effect of insulin (100 nM). […] The symbols in Table 6 are as follows: • No: Example No., and • A: sugar transporting activity.
The results of the evaluation of the sugar-transporting activity obtained by using each compound of the present invention are shown in Table 7. The sugar transporting activity in Table 7 was determined in terms of the concentration (EC50: μg/ml) of a test compound, having a reinforcing effect corresponding to 50% on the basis of the reinforcing effect of insulin having a reinforcing effect of 100%.

SMILES	activation at 100 µg/mL [%]
CCCCOc1ccc(C2Nc3ccccc3NC3=C2C(=O)NC3)c(OCCC)c1 (stereo not shown) [Example 24]	≥ 70
O=C1NCC2=C1C(c1ccc(-n3cccn3)cc1)Nc1ccccc1N2 (stereo not shown) [Example 17]	20 to 40
O=C1NCC2=C1C(c1ccc(-c3ccc([N+](=O)[O-])cc3)cc1)Nc1ccccc1N2 (stereo not shown) [Example 8]	≥ 70
CC(C)(C)CC(C)(C)c1ccc(C2Nc3ccccc3NC3=C2C(=O)NC3)c(Cl)c1 (stereo not shown) [Example 31]	≥ 70
CC(C)(C)c1ccc(C2Nc3ccccc3NC3=C2C(=O)NC3)cc1 (stereo not shown) [Example 5]	20 to 40
CCCCOc1ccc(C2Nc3ccccc3NC3=C2C(=O)NC3)c(OCCCC)c1 (stereo not shown) [Example 22]	≥ 70
CCCCOc1ccc(C2Nc3ccccc3NC3=C2C(=O)NC3)c(OC)c1 (stereo not shown) [Example 21]	40 to 70
O=C1NCC2=C1C(c1ccc(-c3ccccc3)cc1)Nc1ccccc1N2 (stereo not shown) [Example 7]	40 to 70
CCCOc1cc(OCC)ccc1C1Nc2ccccc2NC2=C1C(=O)NC2 (stereo not shown) [Example 25]	40 to 70
CCCCOc1ccc(C2Nc3ccccc3NC3=C2C(=O)NC3)cc1 (stereo not shown) [Example 10]	20 to 40

Same assay, conditions: concentration having a reinforcing effect corresponding to 50% of the reinforcing effect of insulin (100%); rat adipose cells

SMILES	A: sugar transporting activity (EC50) [mg/L]	EC50 [mg/L]
CC(=O)N1[C@@H]2CCCC[C@H]2NC2=C(C(=O)NC2)[C@H]1c1ccc(Br)cc1 [Example 161]	17	
CC(=O)N1[C@@H]2CCCC[C@H]2NC2=C(C(=O)NC2)[C@H]1c1ccccc1C [Example 123]	5	
CCCC(=O)N1[C@@H]2CCCC[C@H]2NC2=C(C(=O)NC2)[C@H]1c1ccccc1CC [Example 126]	5	
CC(=O)N1[C@@H]2CCCC[C@H]2NC2=C(C(=O)NC2)[C@H]1c1ccccc1N [Example 158]	12	
CCNC(=O)N1[C@@H]2CCCC[C@H]2NC2=C(C(=O)NC2)[C@H]1c1ccccc1OCC [Example 97]	12	
CC(=O)N1[C@@H]2CCCC[C@H]2NC2=C(C(=O)NC2)[C@H]1c1ccc(Br)s1 [Example 180]		19 (≈ 46.3 µM)
COCC(=O)N1[C@@H]2CCCC[C@H]2NC2=C(C(=O)NC2)[C@H]1c1ccccc1C [Example 122]	6	
CCOCC(=O)N1[C@@H]2CCCC[C@H]2NC2=C(C(=O)NC2)[C@H]1c1ccccc1 [Example 155]	2.7	
CCCC(=O)N1[C@@H]2CCCC[C@H]2NC2=C(C(=O)NC2)[C@H]1c1ccccc1OC [Example 47]	4.6	
CCC(=O)N1[C@@H]2CCCC[C@H]2NC2=C(C(=O)NC2)[C@H]1c1ccccc1Cl [Example 141]	3	
CCNC(=O)N1[C@@H]2CCCC[C@H]2NC2=C(C(=O)NC2)[C@H]1c1ccccc1OC [Example 84]	3.6	
CCOc1ccccc1[C@@H]1C2=C(CNC2=O)N[C@@H]2CCCC[C@H]2N1C(=O)C(F)(F)F [Example 90]	5	
COc1ccccc1[C@@H]1C2=C(CNC2=O)N[C@@H]2CCCC[C@H]2N1C(=O)CCCO [Example 62]	4.8	
COC(=O)N1[C@@H]2CCCC[C@H]2NC2=C(C(=O)NC2)[C@H]1c1ccccc1Cl [Example 147]	2.4	
CCOCC(=O)N1[C@@H]2CCCC[C@H]2NC2=C(C(=O)NC2)[C@H]1c1ccccc1OCc1ccccc1 [Example 102]	4	
COC(=O)N1[C@@H]2CCCC[C@H]2NC2=C(C(=O)NC2)[C@H]1c1ccccc1OC(C)C [Example 101]	4.8	
COCC(=O)N1[C@@H]2CCCC[C@H]2NC2=C(C(=O)NC2)[C@H]1c1ccccc1Cl [Example 144]	5	
CCOCC(=O)N1[C@@H]2CCCC[C@H]2NC2=C(C(=O)NC2)[C@H]1c1ccccc1OC [Example 54]	2.2	

SMILES	A: sugar transporting activity (EC50) [mg/L]	EC50 [mg/L]
COc1ccccc1[C@@H]1C2=C(CNC2=O)N[C@@H]2CCCC[C@H]2N1C(=O)OCc1ccccc1 [Example 82]	6	
CCC(=O)N1[C@@H]2CCCC[C@H]2NC2=C(C(=O)NC2)[C@H]1c1ccc(F)cc1OC [Example 107]	0.82	
CCC(=O)N1[C@@H]2CCCC[C@H]2NC2=C(C(=O)NC2)[C@H]1c1ccccc1OC(C)C [Example 99]	2	
COc1ccccc1[C@@H]1C2=C(CNC2=O)N[C@@H]2CCCC[C@H]2N1C(=O)CCNC(=O)OCc1ccccc1 [Example 65]	8	
CCC(=O)N1[C@@H]2CCCC[C@H]2NC2=C(C(=O)NC2)[C@H]1c1ccccc1 [Example 154]	1.5	
COc1ccccc1[C@@H]1C2=C(CNC2=O)N[C@@H]2CCCC[C@H]2N1C(=O)C(F)(F)C(F)(F)F [Example 50]	9.5	
COc1cc(F)ccc1[C@@H]1C2=C(CNC2=O)N[C@@H]2CCCC[C@H]2N1C(C)=O [Example 109]	8	
COc1ccccc1[C@@H]1C2=C(CNC2=O)N[C@@H]2CCCC[C@H]2N1C(=O)CCSC [Example 71]	2.6	
CC=CC(=O)N1C(c2ccccc2OC)C2=C(CNC2=O)NC2CCCCC21 (stereo not shown) [Example 59]	1.1	
COc1ccccc1[C@@H]1C2=C(CNC2=O)N[C@@H]2CCCC[C@H]2N1C(=O)CCc1ncccn1 [Example 177]	0.10	
CC(=O)N1[C@@H]2CCCC[C@H]2NC2=C(C(=O)NC2)[C@H]1c1ccccc1O [Example 105]	3.7	
CCc1ccccc1[C@@H]1C2=C(CNC2=O)N[C@@H]2CCCC[C@H]2N1C(=O)COC [Example 130]	6	
CCOCC(=O)N1[C@@H]2CCCC[C@H]2NC2=C(C(=O)NC2)[C@H]1c1ccccc1O [Example 104]	1	
CCOc1ccccc1[C@@H]1C2=C(CNC2=O)N[C@@H]2CCCC[C@H]2N1C(=O)CC [Example 88]	1.9	
COCCC(=O)N1[C@@H]2CCCC[C@H]2NC2=C(C(=O)NC2)[C@H]1c1ccccc1OC [Example 67]	3.4	
CCOCC(=O)N1[C@@H]2CCCC[C@H]2NC2=C(C(=O)NC2)[C@H]1c1ccccc1F [Example 150]	2	
CCOc1ccccc1[C@@H]1C2=C(CNC2=O)N[C@@H]2CCCC[C@H]2N1C(=O)CCc1ncco1 [Example 167]	0.10	
CCC(=O)N1[C@@H]2CCCC[C@H]2NC2=C(C(=O)NC2)[C@H]1c1ccccc1OC [Example 46]	0.77	
